Source: patent US8791132B2, “Compounds and methods for treatment of hypertension” (Medivation Technologies, Inc., priority 2011, dated 2014)
Where “and” joins values, the source holds several entries; their conditions need not be identical. Equal entries are not always repeated. Where two headings read alike, the source gives them in different places.

Assays:
[1] = target: T1, human recombinant adrenergic α2A receptor (Homo sapiens, UniProt P08913); experiment: Radioligand binding, adrenergic α2A ([3H]MK-912)
T1 construct: expressed in transfected cells; host or cells: insect Sf9 cells
T1 sequence (P08913 1-465): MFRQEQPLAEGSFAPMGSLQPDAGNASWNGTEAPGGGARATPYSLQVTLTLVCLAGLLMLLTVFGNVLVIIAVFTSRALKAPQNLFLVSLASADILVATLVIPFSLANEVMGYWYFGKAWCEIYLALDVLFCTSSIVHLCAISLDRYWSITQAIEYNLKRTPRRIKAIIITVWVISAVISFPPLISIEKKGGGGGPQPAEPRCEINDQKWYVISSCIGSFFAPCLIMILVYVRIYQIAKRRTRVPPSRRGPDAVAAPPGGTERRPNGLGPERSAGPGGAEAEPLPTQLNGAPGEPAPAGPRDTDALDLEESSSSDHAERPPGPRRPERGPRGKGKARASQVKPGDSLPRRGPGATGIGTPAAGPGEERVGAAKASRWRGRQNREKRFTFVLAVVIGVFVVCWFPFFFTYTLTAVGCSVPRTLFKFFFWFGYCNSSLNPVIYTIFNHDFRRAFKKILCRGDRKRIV
Summary of the method: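 Sf9-expressed receptor was incubated with compound for 60 min at 25 °C in modified Tris-HCl buffer, pH 7.4. Nonspecific binding was taken as that remaining with 10 μM WB-4101.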

[2] = target: T2, human recombinant adrenergic α2B receptor (Homo sapiens, UniProt P18089); experiment: Radioligand binding, adrenergic α2B ([3H]Rauwolscine)
T2 construct: expressed in transfected cells; host or cells: CHO-K1
T2 sequence (P18089 1-450): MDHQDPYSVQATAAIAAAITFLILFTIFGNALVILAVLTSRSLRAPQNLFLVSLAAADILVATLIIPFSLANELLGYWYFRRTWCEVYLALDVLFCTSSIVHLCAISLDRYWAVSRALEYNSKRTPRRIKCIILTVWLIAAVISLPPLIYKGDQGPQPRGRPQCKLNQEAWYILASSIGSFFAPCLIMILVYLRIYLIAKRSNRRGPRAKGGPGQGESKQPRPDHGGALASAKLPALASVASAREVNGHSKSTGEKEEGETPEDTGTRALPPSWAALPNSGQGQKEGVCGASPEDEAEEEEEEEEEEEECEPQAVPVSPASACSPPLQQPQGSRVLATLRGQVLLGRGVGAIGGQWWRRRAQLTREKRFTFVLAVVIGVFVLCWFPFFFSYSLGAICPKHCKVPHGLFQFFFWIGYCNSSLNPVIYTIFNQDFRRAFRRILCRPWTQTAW
Summary of the method: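 Values are percent inhibition of specific radioligand binding. The receptor, expressed in CHO-K1 cells, was exposed to 2.5 nM [3H]Rauwolscine at 25° C for 60 min, with 10 μM Prazosin marking non-specific binding.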

[3] = target: T3, rat adrenergic α1B receptor (Rattus norvegicus, UniProt P15823); experiment: Radioligand binding, adrenergic α1B ([3H]Prazosin)
T3 construct: rat adrenergic α1B receptor obtained from Wistar Rat liver; from tissue; host or cells: Wistar rat liver
T3 sequence (P15823 1-515): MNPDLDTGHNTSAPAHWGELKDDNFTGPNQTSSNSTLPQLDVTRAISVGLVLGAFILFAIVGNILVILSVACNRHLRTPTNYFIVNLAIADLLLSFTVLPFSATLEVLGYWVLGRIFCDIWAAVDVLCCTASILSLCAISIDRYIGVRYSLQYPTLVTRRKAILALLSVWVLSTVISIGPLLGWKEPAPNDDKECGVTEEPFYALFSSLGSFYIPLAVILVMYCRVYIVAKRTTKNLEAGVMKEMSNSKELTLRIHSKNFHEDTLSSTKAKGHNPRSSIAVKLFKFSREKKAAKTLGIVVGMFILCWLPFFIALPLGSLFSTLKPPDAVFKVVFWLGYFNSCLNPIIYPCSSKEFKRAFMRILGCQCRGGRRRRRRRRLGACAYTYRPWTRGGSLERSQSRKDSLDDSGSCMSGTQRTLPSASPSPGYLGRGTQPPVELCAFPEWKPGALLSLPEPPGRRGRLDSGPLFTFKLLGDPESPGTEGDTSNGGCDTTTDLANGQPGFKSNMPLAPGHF
Summary of the method: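 Filter binding with Wistar rat liver α1B preparation: test compound plus 0.25 nM [3H]prazosin, 1 h at 25° C in modified Tris-HCl buffer pH 7.4.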

[4] = target: T4, human recombinant adrenergic α1D receptor (Homo sapiens, UniProt P25100); experiment: Radioligand binding, adrenergic α1D ([3H]Prazosin)
T4 construct: expressed in transfected cells; host or cells: HEK-293
T4 sequence (P25100 1-572): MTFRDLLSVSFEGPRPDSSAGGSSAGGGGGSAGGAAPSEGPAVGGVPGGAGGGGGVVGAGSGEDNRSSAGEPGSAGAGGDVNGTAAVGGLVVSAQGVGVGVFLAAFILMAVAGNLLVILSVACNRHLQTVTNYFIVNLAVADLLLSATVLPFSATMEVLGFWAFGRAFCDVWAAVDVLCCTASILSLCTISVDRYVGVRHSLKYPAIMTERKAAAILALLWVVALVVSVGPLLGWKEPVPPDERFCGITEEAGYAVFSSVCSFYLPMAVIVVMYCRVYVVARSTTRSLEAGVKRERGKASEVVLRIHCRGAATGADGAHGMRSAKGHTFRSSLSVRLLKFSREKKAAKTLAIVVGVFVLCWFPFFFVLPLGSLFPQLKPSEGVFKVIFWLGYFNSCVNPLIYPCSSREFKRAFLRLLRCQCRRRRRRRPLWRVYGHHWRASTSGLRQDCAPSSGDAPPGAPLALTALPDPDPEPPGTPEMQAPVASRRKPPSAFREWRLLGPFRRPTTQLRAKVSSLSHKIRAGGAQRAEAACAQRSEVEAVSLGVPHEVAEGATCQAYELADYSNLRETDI
Description: Compounds were incubated with 0.6 nM [3H]Prazosin for 60 min at 25° C. Non-specific binding was estimated in the presence of 10 μM phentolamine. Receptor proteins were filtered and washed, the filters were then counted to determine [3H]Prazosin specifically bound. […] Biochemical assay results are presented as the percent inhibition of specific binding in Table B1.

[5] = 0.1 μM compound, read-out: Percentage inhibition of ligand binding, Adrenergic α2A
[6] = 0.1 μM compound, read-out: Percentage inhibition of ligand binding, Adrenergic α2B
[7] = 0.1 μM compound, read-out: Percentage inhibition of ligand binding, Adrenergic α1B
[8] = 0.1 μM compound, read-out: Percentage inhibition of ligand binding, Adrenergic α1D
[9] = read-out: Percentage inhibition of ligand binding, Adrenergic α2A (0.1 μM), compound at 0.1 μM, [3H]MK-912, repeat datapoints each shown
[10] = read-out: Percentage inhibition of ligand binding, Adrenergic α2B (0.1 μM), compound at 0.1 μM, [3H]Rauwolscine, repeat datapoints each shown
[11] = read-out: Percentage inhibition of ligand binding, Adrenergic α1B (0.1 μM), compound at 0.1 μM, [3H]Prazosin, repeat datapoints each shown
[12] = read-out: Percentage inhibition of ligand binding, Adrenergic α1D (0.1 μM), compound at 0.1 μM, [3H]Prazosin, repeat datapoints each shown

Row | inhibition at 0.1 µM [1, 5] [%] | inhibition at 0.1 µM [2, 6] [%] | inhibition at 0.1 µM [3, 7] [%] | inhibition at 0.1 µM [4, 8] [%] | SMILES | other results
1 | 81 | 35 | 23 | 17 | Cc1ccc2c(c1)c1c(n2C2=C(c3sccc3C)CCC2)CCN(C)C1 [compound 302, 2,8-dimethyl-5-(2-(3-methylthiophen-2-yl)cyclopent-1-enyl)-2,3,4,5-tetrahydro-1H-pyrido[4,3-b]indole] | 
2 | 82 | 98 | 71 | 53 | C/C(=C\n1c2c(c3cc(C)ccc31)CN(C)CC2)c1ccccn1 [compound 259] | 
3 | 87 | 84 | 29 | 36 | Cc1ccc2c(c1)c1c(n2C2=C(c3ccc(F)cc3)CCC2)CCN(C)C1 [compound 301, 5-(2-(4-fluorophenyl)cyclopent-1-enyl)-2,8-dimethyl-2,3,4,5-tetrahydro-1H-pyrido[4,3-b]indole] | 
4 | 59 | 48 | 4 | 3 | Cc1ccc(CCn2c3c(c4ccc(Cl)cc42)CN(C)CC3)cn1 [compound 315] | 
5 | 80 | 60 | 26 | 19 | C/C(=C/n1c2c(c3cc(C)ccc31)CN(C)CC2)c1cccc2ccccc12 [compound 286] | 
6 | 97 | 71 | 65 | 83 | C/C(=C/n1c2c(c3cc(C)ccc31)CN(C)CC2)c1ccc2ccccc2c1 [compound 271] | 
7 | 84 | 100 | 51 | 24 | C/C(=C\n1c2c(c3cc(Cl)ccc31)CN(C)C(C)C2)c1ccc(C)nc1 (stereo not shown) [compound 257] | 
8 |  |  |  |  | Cc1ccc2c(c1)c1c(n2CC(=O)c2ccc(F)cc2)CCN(C)C1 [compound 94] | inhibition at 0.1 µM [1, 9]: 11%; inhibition at 0.1 µM [2, 10]: 66%; inhibition at 0.1 µM [3, 11]: 40%; inhibition at 0.1 µM [4, 12]: 10%
9 |  |  |  |  | C/C(=C/n1c2c(c3cc(C)ccc31)CCN(C)CC2)c1ccc(Cl)cc1Cl [compound 226] | inhibition at 0.1 µM [1, 9]: 85%; inhibition at 0.1 µM [2, 10]: 83%; inhibition at 0.1 µM [3, 11]: 88%; inhibition at 0.1 µM [4, 12]: 48%
10 |  |  |  |  | Cc1ccc2c(c1)c1c(n2CCc2ccc(F)cc2)CCN(C)C1 [compound 206] | Ki [1]: 1.12 nM and 6.79 nM; inhibition at 0.1 µM [1, 9]: 86%; inhibition at 0.1 µM [2, 10]: 102%; inhibition at 0.03 µM ([3]; read-out: Percentage inhibition of ligand binding, Adrenergic α1B (0.03 μM), compound at 0.03 μM, [3H]Prazosin, repeat datapoints each shown): 46%; inhibition at 0.03 µM ([4]; read-out: Percentage inhibition of ligand binding, Adrenergic α1D (0.03 μM), compound at 0.03 μM, [3H]Prazosin, repeat datapoints each shown): 42%
11 | 62 | 105 | 37 | 22 | C/C(=C\n1c2c(c3cc(C)ccc31)CN(C)CC2)c1cccnc1 [compound 250] | 
12 |  |  |  |  | Cc1ccc2c(c1)c1c(n2CC(C)(F)c2ccncc2)CCN(C)C1 (stereo not shown) [compound 102] | inhibition at 0.1 µM [1, 9]: 21%; inhibition at 0.1 µM [2, 10]: 77%; inhibition at 0.1 µM [3, 11]: 40%; inhibition at 0.1 µM [4, 12]: 21%
13 |  |  |  |  | C/C(=C\n1c2c(c3cc(C)ccc31)C1CCC(C2)N1C)c1ccccc1F (stereo not shown) [compound 231] | inhibition at 0.1 µM [1, 9]: 65%; inhibition at 0.1 µM [2, 10]: 87%; inhibition at 0.1 µM [3, 11]: 48%; inhibition at 0.1 µM [4, 12]: 26%
14 | 90 | 105 | 58 | 45 | C/C(=C\n1c2c(c3cc(C)ccc31)CN(C)CC2)c1ccc(Cl)c(Cl)c1 [compound 243] | Ki [1]: 3.86 nM; inhibition at 0.03 µM ([1]; 0.03 μM compound, read-out: Percentage inhibition of ligand binding, Adrenergic α2A): 73%; Percentage inhibition of ligand binding, Adrenergic α2A ([1]; 0.1 μM compound, 0.1 µM): 98%
15 | 97 | 76 | 83 | 81 | C/C(=C/n1c2c(c3cc(C)ccc31)CN(C)CC2)c1ccc2ccn(C)c2c1 [compound 284] | 
16 | 60 | 104 | 68 | 78 | CCCc1ccc(/C(C)=C/n2c3c(c4cc(C)ccc42)CN(C)CC3)cn1 [compound 329] | 
17 | 91 | 50 | 92 | 71 | Cc1ccc2c(c1)c1c(n2CCc2ccc(C)nc2)C(c2ccccc2)N(C)CC1 (stereo not shown) [compound 314] | 
18 | 84 | 84 | 50 | 30 | C/C(=C\n1c2c(c3cc(C)ccc31)CN(C)CC2)C1CCCCC1 [compound 261] | 
19 | 76 | 93 | 95 | 80 | Cc1ccc(C#Cn2c3c(c4cc(C)ccc42)CN(C)CC3)nc1 [compound 328, 2,8-dimethyl-5-(5-methyl-pyridin-2-ylethynyl)-2,3,4,5-tetrahydro-1H-pyrido[4,3-b]indole] | 
20 | 92 | 95 | 85 | 69 | Cc1ccc2c(c1)c1c(n2/C=C/c2cnc3ccccc3c2)CCN(C)C1 [compound 323] | 
21 | 96 | 93 | 73 | 82 | C/C(=C/n1c2c(c3cc(C)ccc31)CN(C)CC2)c1cc2ccccc2s1 [compound 293] | 
